Columns and labels:
[1] = system: bovine viral diarrhea virus (BVDV) NADL strain; test: BVDV antiviral efficacy evaluation, drug-drug combination analysis (checkerboard, MTS staining, MacSynergy II); assay type: cell-based; conditions: in combination with TNF-α; MDBK cells with BVDV virus; interaction by Bliss independence (MacSynergy II)
Procedure: (§1) The substances were solubilized in DMSO. […]
(§2) The bovine viral diarrhea virus (BVDV) NADL strain antiviral evaluation assay and drug-drug combination analysis was performed as described in Antimicro. Agents Chemother. 2003; 47: 2293-8. BVDV is frequently employed as a hepatitis C virus surrogate model in the study of antiviral agents (Antiviral Res. 2003; 60: 1-15). Madin-Darby bovine kidney cells were trypsinized, pelleted, counted and resuspended at 1×10^4/well in tissue culture medium in 96-well flat bottom, tissue culture plates in volume of 100µl per well. […]
(§3) At assay termination, the assay plates were stained with the soluble tetrazolium-based dye MTS (CellTiter Reagent Promega) to determine cell viability and quantify compound toxicity. MTS is metabolized y the mitochondrial enzymes of metabolically active cells to yield a soluble formazan product, allowing the rapid quantitative analysis of cell viability and compound cytotoxicity. […] Adhesive sealers were used in place of the lids, the sealed plate was inverted several times to mix the soluble formazan product and the plate was read spectrophotometrically at 490 nm and 650 nm with a Molecular Devices Vmax plate reader. […]
(§4) Theoretical additive values are calculated from the dose response curves for each substance used individually. […]

[2] = system: Madin-Darby bovine kidney cells; test: BVDV assay, cytotoxicity of the drug-drug combination (MTS staining for cell viability); assay type: cell-based; conditions: in combination with TNF-α; MDBK cells; interaction by Bliss independence (MacSynergy II)
Procedure: as §1, §2, §3, §4

Q: How did the combined antiviral activity [1] turn out when `O=C(c1ccccc1)c1ccc2nc(NC(=O)c3csc(C4CCN(c5ncnc6ccsc56)CC4)n3)[nH]c2c1` [Compound 273, 2-(1-Thieno[3,2-d]pyrimidin-4-yl-piperidin-4-yl)-thiazole-4-carboxylic acid (5-b enzoyl-1H-benzaimidazol-2-yl)-amide] was run?
A: The combined antiviral activity was “highly synergistic behaviour”.

Q: And the combined cytotoxic activity [2]?
A: Its combined cytotoxic activity is “highly antagonistic behaviour”.

Reference: patent EP1977759A1, “Pharmaceutical composition comprising a cytokine” (4SC AG, priority 2007, dated 2008)
